Experimental data: PubChem BioAssay AID1745844 (Carcinogenic Potency Database (CPDB), 2022)
Active and inactive are the calls of the source. No rule for the calls is given here.

Test system: rodent lifetime carcinogenesis bioassay, tumor incidence TD50
Assay: chronic cancer bioassays in animals – CPDB, compiled studies (AID 1745844)

CCc1nc(N)nc(N)c1-c1ccc(Cl)cc1
TD50 (mouse, strain B6C3F1, females, in feed, site: any site (literature study), lesion: several types, types named in the paper, dosed 78 weeks, study length 104 weeks): 315 mg/kg/day (inactive)
TD50 (mouse, strain B6C3F1, females, in feed, site: lung, lesion: alveolar/bronchiolar adenoma + alveolar/bronchiolar carcinoma, dosed 78 weeks, study length 104 weeks): 405 mg/kg/day
TD50 (mouse, strain B6C3F1, males, in feed, site: any site (literature study), lesion: several types, types named in the paper, dosed 78 weeks, study length 104 weeks): 419 mg/kg/day
TD50 (rat, strain Fischer 344, females, in feed, site: any site (literature study), lesion: several types, types named in the paper, dosed 78 weeks, study length 104 weeks): 27.8 mg/kg/day (inactive)
carcinogen call (rat, strain Fischer 344, males, in feed, site: any site (literature study), lesion: several types, types named in the paper, dosed 78 weeks, study length 104 weeks): negative (inactive)

CCNNC(=O)[C@@H]1[C@H](c2cc(OC)c(OC)c(OC)c2)c2cc3c(cc2[C@H](O)[C@H]1CO)OCO3
carcinogen call (rat, strain BR 46, males, i.v., site: any site (literature study), lesion: several types, types named in the paper, dosed 52 weeks, study length 104 weeks): negative (inactive)

BrC(Br)Br
TD50 (mouse, strain B6C3F1, females, by gavage, site: liver + spleen, lesion: hemangiosarcoma, dosed 103 weeks, study length 106 weeks): 1110 mg/kg/day (inactive)
TD50 (mouse, strain B6C3F1, females, by gavage, site: liver, lesion: hepatocellular adenoma + hepatocellular carcinoma + neoplastic nodule, dosed 103 weeks, study length 106 weeks): 570 mg/kg/day
TD50 (mouse, strain B6C3F1, males, by gavage, site: any site (literature study), lesion: several types, types named in the paper, dosed 103 weeks, study length 106 weeks): 41 mg/kg/day
TD50 (mouse, strain B6C3F1, males, by gavage, site: liver, lesion: hepatocellular adenoma + hepatocellular carcinoma + neoplastic nodule, dosed 103 weeks, study length 106 weeks): 53.6 mg/kg/day
TD50 (mouse, strain B6C3F1, males, by gavage, site: lung, lesion: alveolar/bronchiolar adenoma + alveolar/bronchiolar carcinoma, dosed 103 weeks, study length 106 weeks): 2450 mg/kg/day
TD50 (mouse, strain B6C3F1, males, by gavage, site: subcutaneous tissue, lesion: fibrosarcoma + sarcoma, dosed 103 weeks, study length 106 weeks): 81.9 mg/kg/day (inactive)
TD50 (rat, strain Fischer 344, females, by gavage, site: large intestine, lesion: adenocarcinoma + polypoid adenoma, dosed 103 weeks, study length 106 weeks): 469 mg/kg/day
TD50 (rat, strain Fischer 344, females, by gavage, site: large intestine, lesion: polypoid adenoma, dosed 103 weeks, study length 106 weeks): 632 mg/kg/day
TD50 (rat, strain Fischer 344, females, by gavage, site: liver, lesion: hepatocellular adenoma + hepatocellular carcinoma + neoplastic nodule, dosed 103 weeks, study length 106 weeks): 676 mg/kg/day
TD50 (rat, strain Fischer 344, males, by gavage, site: any site (literature study), lesion: several types, types named in the paper, dosed 103 weeks, study length 105 weeks): 513 mg/kg/day
TD50 (rat, strain Fischer 344, males, by gavage, site: large intestine, lesion: adenocarcinoma + polypoid adenoma, dosed 103 weeks, study length 105 weeks): 1050 mg/kg/day
TD50 (rat, strain Fischer 344, males, by gavage, site: testis, lesion: interstitial-cell adenoma, bilateral + interstitial-cell adenoma, dosed 103 weeks, study length 105 weeks): 75 mg/kg/day
TD50 (rat, strain Fischer 344, males, by gavage, site: thyroid gland, lesion: follicular-cell carcinoma, dosed 103 weeks, study length 105 weeks): 656 mg/kg/day

CC1(C)[C@@H](O[C@H]2O[C@H](C(=O)O)[C@@H](O)[C@H](O)[C@H]2O[C@@H]2O[C@H](C(=O)O)[C@@H](O)[C@H](O)[C@H]2O)CC[C@]2(C)[C@H]3C(=O)C=C4[C@@H]5C[C@@](C)(C(=O)O)CC[C@]5(C)CC[C@@]4(C)[C@]3(C)CC[C@@H]12
carcinogen call (mouse, strain B6C3F1, females, in drinking water, site: any site (literature study), lesion: several types, types named in the paper, dosed 96 weeks, study length 110 weeks): negative (inactive)
carcinogen call (mouse, strain B6C3F1, females, in drinking water, site: liver, lesion: hemangioma, dosed 96 weeks, study length 110 weeks): negative (inactive)
TD50 (mouse, strain B6C3F1, females, in drinking water, site: liver, lesion: hepatocellular adenoma, dosed 96 weeks, study length 110 weeks): 28900 mg/kg/day (inactive)
TD50 (mouse, strain B6C3F1, females, in drinking water, site: liver, lesion: hepatocellular carcinoma, dosed 96 weeks, study length 110 weeks): 29000 mg/kg/day (inactive)
carcinogen call (mouse, strain B6C3F1, females, in drinking water, site: lung, lesion: adenocarcinoma, dosed 96 weeks, study length 110 weeks): negative (inactive)
TD50 (mouse, strain B6C3F1, females, in drinking water, site: lung, lesion: adenoma, dosed 96 weeks, study length 110 weeks): 14400 mg/kg/day (inactive)
TD50 (mouse, strain B6C3F1, males, in drinking water, site: any site (literature study), lesion: several types, types named in the paper, dosed 96 weeks, study length 110 weeks): 3170 mg/kg/day (inactive)
carcinogen call (mouse, strain B6C3F1, males, in drinking water, site: liver, lesion: hemangioma, dosed 96 weeks, study length 110 weeks): negative (inactive)
carcinogen call (mouse, strain B6C3F1, males, in drinking water, site: liver, lesion: hepatocellular adenoma, dosed 96 weeks, study length 110 weeks): negative (inactive)
carcinogen call (mouse, strain B6C3F1, males, in drinking water, site: liver, lesion: hepatocellular carcinoma, dosed 96 weeks, study length 110 weeks): negative (inactive)
carcinogen call (mouse, strain B6C3F1, males, in drinking water, site: lung, lesion: adenocarcinoma, dosed 96 weeks, study length 110 weeks): negative (inactive)
carcinogen call (mouse, strain B6C3F1, males, in drinking water, site: lung, lesion: adenoma, dosed 96 weeks, study length 110 weeks): negative (inactive)

COc1cc(OC)c2c3c(c(=O)oc2c1)CCC3=O
carcinogen call (rat, strain Fischer, males, by gavage, site: liver, lesion: one or several types, types not named, dosed 52 weeks, study length 74 weeks): negative (inactive)

O=[N+]([O-])c1ccc2ccc3cccc4ccc1c2c34
TD50 (rat, strain Fischer 344/Jcl, females, by gavage, site: all sites, lesion: mononuclear-cell leukemia, dosed 55 weeks, study length 104 weeks): 4.33 mg/kg/day
TD50 (rat, strain Fischer 344/Jcl, females, by gavage, site: clitoral gland, lesion: adenocarcinoma, dosed 55 weeks, study length 104 weeks): 157 mg/kg/day
TD50 (rat, strain Fischer 344/Jcl, females, by gavage, site: clitoral gland, lesion: several types, types named in the paper, dosed 55 weeks, study length 104 weeks): 6.16 mg/kg/day
TD50 (rat, strain Fischer 344/Jcl, females, by gavage, site: clitoral gland, lesion: squamous-cell carcinoma, dosed 55 weeks, study length 104 weeks): 6.08 mg/kg/day
TD50 (rat, strain Fischer 344/Jcl, females, by gavage, site: mammary gland, lesion: adenocarcinoma, dosed 55 weeks, study length 104 weeks): 4.82 mg/kg/day
TD50 (rat, strain Fischer 344/Jcl, females, by gavage, site: mammary gland, lesion: adenoma, dosed 55 weeks, study length 104 weeks): 51.4 mg/kg/day
TD50 (rat, strain Fischer 344/Jcl, females, by gavage, site: mammary gland, lesion: fibroadenoma, dosed 55 weeks, study length 104 weeks): 39.6 mg/kg/day
TD50 (rat, strain Fischer 344/Jcl, females, by gavage, site: mammary gland, lesion: several types, types named in the paper, dosed 55 weeks, study length 104 weeks): 3.33 mg/kg/day
TD50 (rat, strain Fischer 344/Jcl, females, by gavage, site: uterus, lesion: endometrial stromal polyp, dosed 55 weeks, study length 104 weeks): 13.1 mg/kg/day

CC(C)(Oc1ccc(C2CC2(Cl)Cl)cc1)C(=O)O (stereo unspecified)
TD50 (mouse, strain C57BL/6N, males, in feed, site: liver, lesion: hepatocellular adenoma, dosed 78 weeks, study length 78 weeks): 5.89 mg/kg/day
TD50 (mouse, strain C57BL/6N, males, in feed, site: liver, lesion: hepatocellular adenoma, dosed 89 weeks, study length 91 weeks): 19.2 mg/kg/day
TD50 (mouse, strain C57BL/6N, males, in feed, site: liver, lesion: hepatocellular carcinoma, dosed 78 weeks, study length 78 weeks): 12.3 mg/kg/day
TD50 (mouse, strain C57BL/6N, males, in feed, site: liver, lesion: hepatocellular carcinoma, dosed 89 weeks, study length 91 weeks): 46.4 mg/kg/day
TD50 (mouse, strain C57BL/6N, males, in feed, site: liver, lesion: several types, types named in the paper, dosed 78 weeks, study length 78 weeks): 4.17 mg/kg/day
TD50 (mouse, strain C57BL/6N, males, in feed, site: liver, lesion: several types, types named in the paper, dosed 89 weeks, study length 91 weeks): 12.1 mg/kg/day
TD50 (rat, strain Fischer 344, females, in feed, site: stomach, glandular, lesion: carcinoid tumor, malignant, dosed 104 weeks, study length 104 weeks): 531 mg/kg/day
carcinogen call (rat, strain Fischer 344, males, in feed, site: liver, lesion: hepatocellular carcinoma, dosed 60 weeks, study length 60 weeks): positive
carcinogen call (rat, strain Fischer 344, males, in feed, site: liver, lesion: neoplastic nodule, dosed 60 weeks, study length 60 weeks): positive
carcinogen call (rat, strain Fischer 344, males, in feed, site: liver, lesion: several types, types named in the paper, dosed 60 weeks, study length 60 weeks): positive
carcinogen call (rat, strain Fischer 344, males, in feed, site: liver, lesion: several types, types named in the paper, dosed 95 weeks, study length 95 weeks): positive
TD50 (rat, strain Fischer 344, males, in feed, site: stomach, glandular, lesion: carcinoid tumor, malignant, dosed 104 weeks, study length 104 weeks): 103 mg/kg/day
carcinogen call (rat, strain Fischer 344, males, in feed, site: testis, lesion: Leydig-cell tumor, dosed 95 weeks, study length 95 weeks): negative (inactive)

Cc1cnc(NC(=O)C2=C(O)c3ccccc3S(=O)(=O)N2C)s1
carcinogen call (rat, strain Wistar, females, by gavage, site: stomach, lesion: one or several types, types not named, dosed 52 weeks, study length 52 weeks): negative (inactive)
carcinogen call (rat, strain Wistar, males, by gavage, site: stomach, lesion: one or several types, types not named, dosed 52 weeks, study length 52 weeks): negative (inactive)

NNC(=O)c1cccnc1
carcinogen call (mouse, strain Swiss albino, females, in drinking water, site: liver, lesion: angioma, dosed 102 weeks, study length 102 weeks): negative (inactive)
carcinogen call (mouse, strain Swiss albino, females, in drinking water, site: liver, lesion: angiosarcoma, dosed 102 weeks, study length 102 weeks): negative (inactive)
TD50 (mouse, strain Swiss albino, females, in drinking water, site: lung, lesion: adenocarcinoma, dosed 102 weeks, study length 102 weeks): 511 mg/kg/day
TD50 (mouse, strain Swiss albino, females, in drinking water, site: lung, lesion: adenoma, dosed 102 weeks, study length 102 weeks): 181 mg/kg/day
TD50 (mouse, strain Swiss albino, females, in drinking water, site: lung, lesion: several types, types named in the paper, dosed 102 weeks, study length 102 weeks): 145 mg/kg/day
carcinogen call (mouse, strain Swiss albino, males, in drinking water, site: liver, lesion: angioma, dosed 101 weeks, study length 101 weeks): negative (inactive)
carcinogen call (mouse, strain Swiss albino, males, in drinking water, site: liver, lesion: angiosarcoma, dosed 101 weeks, study length 101 weeks): negative (inactive)
TD50 (mouse, strain Swiss albino, males, in drinking water, site: liver, lesion: hepatoma, dosed 101 weeks, study length 101 weeks): 1410 mg/kg/day (inactive)
TD50 (mouse, strain Swiss albino, males, in drinking water, site: lung, lesion: adenoma, dosed 101 weeks, study length 101 weeks): 428 mg/kg/day
TD50 (mouse, strain Swiss albino, males, in drinking water, site: lung, lesion: several types, types named in the paper, dosed 101 weeks, study length 101 weeks): 528 mg/kg/day
